Patent US20220071996A1, “ORAL FORMULATIONS OF BRANAPLAM” (NOVARTIS AG, priority 2018, published 2022)
Values after ≈ are worked out from the molar mass of the structure shown. Where two headings read alike, the source gives them in different places.

Tests used:
[1] = solubility of branaplam in selected excipients; type: physicochemical; settings: pH 4, aqueous with cosolvent or surfactant or cyclodextrin, thermodynamic from solid
Method: (§1) Solubility of branaplam was evaluated in excipients, other than cyclodextrin, such as Cremophor RH40, Tween 80, PG, PEG300, and glycerol. These excipients and concentrations were selected as they are suitable for paediatric formulations. None of the tested excipients was able to support development of a formulation comprising branaplam at a concentration high enough (i.e. about 2 mg/ml or higher) to keep the dose volume in a suitable range (Table 6).
as §1, with “5a).” for “6).”
Solubility of branaplam was measured as follows: stock solutions for the excipients at target concentrations were prepared using milli-Q water and adjusted using pH 4.0 buffer. […] Suspensions were stirred for 24 hours (using a magnetic stirrer) ensuring sufficient swirling and monitoring the temperature. The suspensions were filtered through 0.45 μm nominal pore size filter (e.g. using a PES syringe), and the concentration of branaplam in the filtrate was measured using HPLC (high performance liquid chromatography). The measurements were performed in duplicate and average of the values are reported.

[2] = measured pKas of branaplam; type: physicochemical; settings: acid

`CC1(C)CC(Oc2ccc(-c3ccc(-c4cn[nH]c4)cc3O)nn2)CC(C)(C)N1` [branaplam, 5-(1H-pyrazol-4-yl)-2-(6-((2,2,6,6-tetramethylpiperidin-4-yl)oxy)pyridazin-3-yl)phenol] gave a solubility at 24 h ([1]; aqueous excipient stock solution, 2 °C, in Cremophor RH 40 3.5% (w/w), 2-8° C., read-out: Solubility (mg/mL) 2-8° C.) of 0.44 mg/mL (≈ 1120 µM), a solubility at 24 h ([1]; aqueous excipient stock solution, 2 °C, in Cremophor RH 40 7.0% (w/w), 2-8° C., read-out: Solubility (mg/mL) 2-8° C.) of 0.71 mg/mL (≈ 1800 µM) and a solubility at 24 h ([1]; aqueous excipient stock solution, 2 °C, in Cremophor RH 40 15.0% (w/w), 2-8° C., read-out: Solubility (mg/mL) 2-8° C.) of 1.19 mg/mL (≈ 3020 µM). It also gave a solubility at 24 h ([1]; aqueous excipient stock solution, 2 °C, in Glycerol 5.0% (w/v), pH 4.0 buffer, 2-8° C., read-out: Solubility (mg/mL) 2-8° C.) of 0.2 mg/mL (≈ 508 µM), a solubility at 24 h ([1]; aqueous excipient stock solution, 2 °C, in Glycerol 10.0% (w/v), pH 4.0 buffer, 2-8° C., read-out: Solubility (mg/mL) 2-8° C.) of 0.19 mg/mL (≈ 483 µM) and a solubility at 24 h ([1]; aqueous excipient stock solution, 2 °C, in Glycerol 25.0% (w/w), 2-8° C., read-out: Solubility (mg/mL) 2-8° C.) of 0.37 mg/mL (≈ 940 µM). For the same molecule, the solubility at 24 h ([1]; aqueous excipient stock solution, 2 °C, in PEG 300 5.0% (w/v), pH 4.0 buffer, 2-8° C., read-out: Solubility (mg/mL) 2-8° C.) was 0.27 mg/mL (≈ 686 µM), the solubility at 24 h ([1]; aqueous excipient stock solution, 2 °C, in PEG 300 10.0% (w/v), pH 4.0 buffer, 2-8° C., read-out: Solubility (mg/mL) 2-8° C.) was 0.34 mg/mL (≈ 864 µM) and the solubility at 24 h ([1]; aqueous excipient stock solution, 2 °C, in PEG 300 25.0% (w/v), pH 4.0 buffer, 2-8° C., read-out: Solubility (mg/mL) 2-8° C.) was 0.87 mg/mL (≈ 2210 µM). It also gave a solubility at 24 h ([1]; aqueous excipient stock solution, 2 °C, in PEG 400 5.0% (w/v), pH 4.0 buffer, 2-8° C., read-out: Solubility (mg/mL) 2-8° C.) of 0.21 mg/mL (≈ 534 µM), a solubility at 24 h ([1]; aqueous excipient stock solution, 2 °C, in PEG 400 10.0% (w/v), pH 4.0 buffer, 2-8° C., read-out: Solubility (mg/mL) 2-8° C.) of 0.45 mg/mL (≈ 1140 µM) and a solubility at 24 h ([1]; aqueous excipient stock solution, 2 °C, in PEG 400 25.0% (w/v), pH 4.0 buffer, 2-8° C., read-out: Solubility (mg/mL) 2-8° C.) of 0.93 mg/mL (≈ 2360 µM). For the same molecule, the solubility at 24 h ([1]; aqueous excipient stock solution, 2 °C, in Propylene glycol 5.0% (w/v), pH 4.0 buffer, 2-8° C., read-out: Solubility (mg/mL) 2-8° C.) was 0.16 mg/mL (≈ 407 µM), the solubility at 24 h ([1]; aqueous excipient stock solution, 2 °C, in Propylene glycol 10.0% (w/v), pH 4.0 buffer, 2-8° C., read-out: Solubility (mg/mL) 2-8° C.) was 0.18 mg/mL (≈ 457 µM) and the solubility at 24 h ([1]; aqueous excipient stock solution, 2 °C, in Propylene glycol 25.0% (w/v), pH 4.0 buffer, 2-8° C., read-out: Solubility (mg/mL) 2-8° C.) was 0.42 mg/mL (≈ 1070 µM). For the same molecule, the solubility at 24 h ([1]; aqueous excipient stock solution, 2 °C, in Tween 80 0.5% (w/v), pH 4.0 buffer, 2-8° C., read-out: Solubility (mg/mL) 2-8° C.) was 0.16 mg/mL (≈ 407 µM), the solubility at 24 h ([1]; aqueous excipient stock solution, 2 °C, in Tween 80 0.8% (w/v), pH 4.0 buffer, 2-8° C., read-out: Solubility (mg/mL) 2-8° C.) was 0.22 mg/mL (≈ 559 µM) and the solubility at 24 h ([1]; aqueous excipient stock solution, 2 °C, in Tween 80 1.5% (w/v), pH 4.0 buffer, 2-8° C., read-out: Solubility (mg/mL) 2-8° C.) was 0.29 mg/mL (≈ 737 µM). The solubility at 24 h ([1]; aqueous excipient stock solution, 2 °C, in Tween 80 5.0% (w/v), pH 4.0 buffer, 2-8° C., read-out: Solubility (mg/mL) 2-8° C.) was 0.73 mg/mL (≈ 1860 µM), the solubility at 24 h ([1]; aqueous excipient stock solution, 25 °C, in Cremophor RH 40 1.0% (w/w), RT, read-out: Solubility (mg/mL) RT) was 0.28 mg/mL (≈ 712 µM) and the solubility at 24 h ([1]; aqueous excipient stock solution, 25 °C, in Cremophor RH 40 3.5% (w/w), RT, read-out: Solubility (mg/mL) RT) was 0.53 mg/mL (≈ 1350 µM). For the same molecule, the solubility at 24 h ([1]; aqueous excipient stock solution, 25 °C, in Cremophor RH 40 7.0% (w/w), RT, read-out: Solubility (mg/mL) RT) was 0.84 mg/mL (≈ 2130 µM), the solubility at 24 h ([1]; aqueous excipient stock solution, 25 °C, in Cremophor RH 40 15.0% (w/w), RT, read-out: Solubility (mg/mL) RT) was 1.32 mg/mL (≈ 3350 µM) and the solubility at 24 h ([1]; aqueous excipient stock solution, 25 °C, in Glycerol 5.0% (w/v), pH 4.0 buffer, RT, read-out: Solubility (mg/mL) RT) was 0.18 mg/mL (≈ 457 µM). For the same molecule, the solubility at 24 h ([1]; aqueous excipient stock solution, 25 °C, in Glycerol 10.0% (w/v), pH 4.0 buffer, RT, read-out: Solubility (mg/mL) RT) was 0.22 mg/mL (≈ 559 µM), the solubility at 24 h ([1]; aqueous excipient stock solution, 25 °C, in Glycerol 25.0% (w/w), RT, read-out: Solubility (mg/mL) RT) was 0.38 mg/mL (≈ 966 µM) and the solubility at 24 h ([1]; aqueous excipient stock solution, 25 °C, in PEG 300 5.0% (w/v), pH 4.0 buffer, RT, read-out: Solubility (mg/mL) RT) was 0.39 mg/mL (≈ 991 µM). It also gave a solubility at 24 h ([1]; aqueous excipient stock solution, 25 °C, in PEG 300 10.0% (w/v), pH 4.0 buffer, RT, read-out: Solubility (mg/mL) RT) of 0.64 mg/mL (≈ 1630 µM), a solubility at 24 h ([1]; aqueous excipient stock solution, 25 °C, in PEG 300 25.0% (w/v), pH 4.0 buffer, RT, read-out: Solubility (mg/mL) RT) of 1.61 mg/mL (≈ 4090 µM) and a solubility at 24 h ([1]; aqueous excipient stock solution, 25 °C, in PEG 400 5.0% (w/v), pH 4.0 buffer, RT, read-out: Solubility (mg/mL) RT) of 0.39 mg/mL (≈ 991 µM). For the same molecule, the solubility at 24 h ([1]; aqueous excipient stock solution, 25 °C, in PEG 400 10.0% (w/v), pH 4.0 buffer, RT, read-out: Solubility (mg/mL) RT) was 0.63 mg/mL (≈ 1600 µM), the solubility at 24 h ([1]; aqueous excipient stock solution, 25 °C, in PEG 400 25.0% (w/v), pH 4.0 buffer, RT, read-out: Solubility (mg/mL) RT) was 1.47 mg/mL (≈ 3740 µM) and the solubility at 24 h ([1]; aqueous excipient stock solution, 25 °C, in Propylene glycol 5.0% (w/v), pH 4.0 buffer, RT, read-out: Solubility (mg/mL) RT) was 0.27 mg/mL (≈ 686 µM). For the same molecule, the solubility at 24 h ([1]; aqueous excipient stock solution, 25 °C, in Propylene glycol 10.0% (w/v), pH 4.0 buffer, RT, read-out: Solubility (mg/mL) RT) was 0.37 mg/mL (≈ 940 µM), the solubility at 24 h ([1]; aqueous excipient stock solution, 25 °C, in Propylene glycol 25.0% (w/v), pH 4.0 buffer, RT, read-out: Solubility (mg/mL) RT) was 0.94 mg/mL (≈ 2390 µM) and the solubility at 24 h ([1]; aqueous excipient stock solution, 25 °C, in Tween 80 0.5% (w/v), pH 4.0 buffer, RT, read-out: Solubility (mg/mL) RT) was 0.25 mg/mL (≈ 635 µM). The solubility at 24 h ([1]; aqueous excipient stock solution, 25 °C, in Tween 80 0.8% (w/v), pH 4.0 buffer, RT, read-out: Solubility (mg/mL) RT) was 0.28 mg/mL (≈ 712 µM), the solubility at 24 h ([1]; aqueous excipient stock solution, 25 °C, in Tween 80 1.5% (w/v), pH 4.0 buffer, RT, read-out: Solubility (mg/mL) RT) was 0.41 mg/mL (≈ 1040 µM) and the solubility at 24 h ([1]; aqueous excipient stock solution, 25 °C, in Tween 80 5.0% (w/v), pH 4.0 buffer, RT, read-out: Solubility (mg/mL) RT) was 0.89 mg/mL (≈ 2260 µM). The solubility at 24 h ([1]; glycerol 25.0% (w/v) aqueous solution in pH 4.0 buffer, 2 °C, in Glycerol 25.0% (w/v), pH 4.0 buffer, 2-8° C., read-out: Solubility (mg/mL) 2-8° C.) was 0.37 mg/mL (≈ 940 µM), the solubility at 24 h ([1]; glycerol 25.0% (w/v) aqueous solution in pH 4.0 buffer, 25 °C, in Glycerol 25.0% (w/v), pH 4.0 buffer, RT, read-out: Solubility (mg/mL) RT) was 0.38 mg/mL (≈ 966 µM) and the pKa [2] was 11.5.
